Experimental findings from PMC9219006 (Plant Direct, 2022) are described below.

For this experiment, the system named is ASAT1H (SqASAT1H; c39979_g2_i1). Description: LC-MS/MS product formation, Michaelis-Menten fit. It counts as biochemical, Solanum quitoense. The conditions noted are these: read-out: apparent Km, 30 °C, pH 6 (default), 20 min.

Where two headings read alike, the source gives them in different places.

The Km is the concentration of substrate that gives half-maximal velocity. Take `O[C@H]1[C@H](O)[C@@H](O)[C@H](O)[C@@H](O)[C@H]1O` [myo-inositol]: the Km (nC10-CoA saturating) is 4400 ± 1100 µM.
For `CCCCCCCCCCCC(=O)SCCNC(=O)CCNC(=O)[C@H](O)C(C)(C)COP(=O)(O)OP(=O)(O)OC[C@H]1O[C@@H](n2cnc3c(N)ncnc32)[C@H](O)[C@@H]1OP(=O)(O)O` [nC12-CoA], the Km (myo-inositol saturating) was 16.6 ± 6.6 µM.
Consider `CCCCCCCCCC(=O)SCCNC(=O)CCNC(=O)[C@H](O)C(C)(C)COP(=O)(O)OP(=O)(O)OC[C@H]1O[C@@H](n2cnc3c(N)ncnc32)[C@H](O)[C@@H]1OP(=O)(O)O` [nC10-CoA], for which the Km (myo-inositol saturating) is 9.5 ± 2.4 µM.
